These results are taken from PMC12081876, “Identification of PTGR2 inhibitors as a new therapeutic strategy for diabetes and obesity” (EMBO Molecular Medicine, 2025).

Structures are written as SMILES.

The subject of test [1] is F4/80-positive macrophages. In words: F4/80 immunohistochemical stain of perigonadal fat. The settings on record: 100 mg/kg/day oral, HFHSD-fed mice, vs vehicle. Format: in vivo, mouse. On the procedure:
Mice perigonadal fat were paraffin-embedded and the 4-µm tissue sections were cut from the paraffin blocks on the slides by Pathology core of the Institute of Biomedical Sciences, Academia Sinica. The slides were conducted immunochemistry staining using primary antibodies for F4/80 (1:200; cat#H0005972-M01, Abnova) and digitized using an Olympus BX51 microscope combined with an Olympus DP72 camera and CellSens Standard 1.14 software (Olympus, Germany).

In test [2] the test system is PTGR2. In words: 15-keto-PGE2 content in fat tissue after BPRPT0245 dosing. The settings on record: BPRPT0245 100 mg/kg/day oral, 4 days, 2 h after last dose, vs vehicle. Format: in vivo, mouse. The method, then:
Liquid nitrogen-frozen tissue was grinded using pestle and mortar. Approximately 500 mg of tissue powders were immersed with 400 μL of the upper layer of acetonitrile (ACN)/hexane mixture supplemented with 0.5% formic acid, and then homogenized with ceramic beads by MagNA Lyser (Roche, USA). The homogenate was then added with 600 μL ACN containing 13,14 dihydro-15-keto-PGE2-d4 (cat no. 10007978, Cayman Chemical, Ann Arbor, MI) in 1:20,000 dilution and homogenized, followed by the addition of 600 μL ddH2O. The mixture was centrifuged at 12,000 × g for 10 min at 0 °C. The lower layer was transferred to a new tube. A C-18 solid-phase extraction (SPE) cartridge (Cat no. 400020, Cayman Chemical) was sequentially activated with 20 mL methanol and 20 mL ddH2O. The protein sample was loaded into activated SPE cartridge. Once the sample passed the cartridge, the cartridge was washed with 5 mL 15% methanol and then 5 mL ddH2O. Finally, the sample was eluted with 10 mL HPLC-degree methanol (Methanol Chromasolv LC-MS, Fluka) and aliquoted into new 2-mL tubes. […]
The HPLC system consisted of an Agilent 1200 series LC System with BinPump (Waldbronn, Germany) and an Agilent Eclipse XDB C8 (3.0 × 150 mm, 5 µm) interfaced to a Sciex API 4000 tandem mass spectrometer. […] The ions monitored for BPRPT0245 were m/z 447/189 and m/z 357/195, respectively. […]

In test [3] the target is T1, Myc-DDK-mPPARγ C313A (Mus musculus, UniProt P37238, C313A).
T1 construct: host or cells: HEK293T
Nature of the test: Reciprocal co-immunoprecipitation in HEK293T cells, mPPARγ C313A. It counts as binding, murine. The settings on record: 15-keto-PGE2 treated. The method, then:
HEK293T cells were transfected with murin PPARγ (mPPARγ) and mPPARγ C313A plasmids for immunoprecipitation, which are Myc-DDK-tagged (OriGene, USA). […] According to the manufacturer’s protocol, proteins were immunoprecipitated using Anti-FLAG® M2 Magnetic Beads (2.5 mg/ml; cat. no. F1804, Sigma-Aldrich). Subsequently, the eluted proteins were separated by SDS-PAGE and subjected to immunoblot analysis. Following separation by SDS-PAGE, proteins were stained with Coomassie blue and SYPRO-Ruby stain. The protein bands of interest were cut out for in-gel tryptic digestion followed by C18 Zip-Tip clean-up (Millipore, USA). For proteomic shotgun identifications, nanoLC-nanoESI-MS/MS analysis was performed on a nanoAcquity system (Waters, USA) connected to the LTQ Orbitrap Velos hybrid MS (Thermo Electron, USA) equipped with a PicoView nanospray interface (New Objective, USA). Samples were loaded onto a C18 BEH column (75 μm × 25 cm length, 130 Å, 1.7 μm particle size) (Waters, USA) and separated by a segmented gradient form in 60 min from 5% to 40% acetonitrile (with 0.1% formic acid) at a constant flow rate of 300 nL/min with a column temperature of 35 °C. The mass spectrometer was operated in the data-dependent mode. […] Protein identification and modification were analyzed using Mascot Daemon (Matrix Science Inc., Chicago). […]

In the case of `Cc1[nH]c2nc(C(C)N3CCN(c4ccccc4)CC3)nn2c(=O)c1Cc1ccc(F)cc1` (stereo not shown) [BPRPT0245], the “F4/80-positive macrophages in perigonadal fat” value in test [1] is “fewer F4/80-positive macrophages”. The “increase of 15-keto-PGE2 content in inguinal fat” value in test [2] is reported as ~ 1.32 fold. The “increase of 15-keto-PGE2 content in perigonadal fat” value in test [2] (trend) is listed as ~ 1.34 fold.
With `CCCCCC(=O)/C=C/[C@H]1[C@H](O)CC(=O)[C@@H]1C/C=C\CCCC(=O)O` [15-keto-PGE2, 15-keto-prostaglandin E2], in test [3], the “co-immunoprecipitation with 15-keto-PGE2-cysteine antibody, mPPARγ C313A” value was “not in samples expressing mPPARγ with C313A mutation”.
